EP1997826A2, “Synthetic ligands for immunoglobulins and pharmaceutical compositions containing them” (Tecnogen S.p.A., priority 2007, dated 2008)
Where two headings read alike, the source gives them in different places.

Legend:
[1] = system: male rats of the CD1 species; format: in vivo, rat; conditions: for dose inhibiting the inflammatory reaction completely: rat, intradermal; for Inhibition of skin reaction (%): intradermal with IgE ascitic fluid
Protocol: Passive cutaneous anaphylaxis in the rat was induced according to the procedure described by Ovary et al., 1952, Int. Arch. Allergy Appl. Immunol. 3:293-301. Rat ascitic fluid containing specific IgE against the ovalbumin antigen was injected in the shaved back of male rats of the CD1 species (Charles River, Italy). Ascitic fluid at different dilutions (from 20 to 20 000 times in PBS) was applied by intradermal injections at a volume of 50 µl, permitting the IgEs present in the ascitic fluid to bind to the FcεRs of the local mast cells, sensitizing them. On the next day, 1 mg of ovalbumin and the dye Evans Blue at a concentration of 2.0%, dissolved in 1 ml of PBS, were injected intravenously. After 30 minutes, the appearance, on the rats' backs, of stained areas in the dermis (wheals) with extent and intensity of staining proportional to the quantity of antigen-specific IgEs injected with the ascitic fluid, was observed. The experiment included a negative control, represented by the intradermal injection of 50 µl of PBS without ascitic fluid, and there was no corresponding appearance of staining. The rats were sacrificed and comparative evaluation of the dimensions and intensity of coloration of the wheals that developed was carried out by densitometric analysis of colour photographs of the animals taken with a single camera, a single film and in the same conditions of exposure times, lighting and orientation. The densitometric analyses were performed with the aid of the IMAGE PRO-PLUS software (Media Cybernetics, Inc.). On the basis of the results obtained in the IgE-FcεR linear binding assay (absence of inhibitors), selecting as reference point the value of dilution of the ascitic fluid at which the most intense inflammatory reaction was observed (the wheal with most intense staining, and consequently the maximum signal on the densitometer), an assay of inhibition of the allergic reaction was performed using peptide lB and the comparative peptide. For this purpose, 25 µl of ascitic fluid containing IgE suitably diluted was incubated with 25 µl of PBS containing different doses of the test compounds (0.025, 0.25, 2.5, 25, 250 and 2500 µg). A single rat was used for each compound. The back of each rat was shaved and was then subdivided into 8 sections by making marks to delimit the zones in which the injections were made. The mixture (50 µl) containing the ascitic fluid and the compounds at the various doses was administered intradermally at each selected point. An injection of 25 µl of ascitic fluid suitably diluted and incubated with 25 µl of PBS was used as the positive control, and 50 µl of PBS was used as the negative control. After 24 hours, the antigen was injected together with the Evans Blue dye as previously described and thirty minutes later, corresponding to the injection sites on the rats' backs, the appearance of coloured wheals was observed, with intensity and dimensions markedly less than in the zones in which higher concentrations of compounds had been applied.

[2] = system: female mice of the Balb/c strain; format: in vivo, mouse; conditions: for dose producing 50% inhibition of the local allergic reaction: mouse, intraperitoneally; for Inhibition of skin reaction (%): 30 minutes before antigen
Protocol: Cutaneous passive anaphylaxis on the mouse ear was induced according to the procedure described by Inagaki et al., Int. Arch. Allergy Appl. Immunol. 1985, 78:113-117. Rat ascitic fluid containing specific IgEs against the ovalbumin antigen was injected in the ear of female mice of the Balb/c strain. Ascitic fluid at different dilutions (5-10-20 times in PBS) was applied by intradermal injections at a volume of 10 µl, permitting the IgEs present in the ascitic fluid to bind to the FcεRs of the local mast cells, sensitizing them. After 48 hours, 0.25 mg of ovalbumin and Evans Blue dye at a concentration of 1.8%, dissolved in 70 µl of PBS, were injected intravenously. After 30 minutes, the appearance, on the mouse ear, of stained areas in the dermis, with extent and intensity of staining proportional to the quantity of antigen-specific IgEs injected with the ascitic fluid, was observed. The experiment included a negative control, represented by the intradermal injection of 10 µl of PBS without ascitic fluid, and there was no corresponding appearance of staining. The mice were sacrificed and the ears were removed for extraction and measurement of the dye discharged in the skin reaction. Each ear was dissolved in 0.5 ml of 1 M KOH, incubating at 37°C for 16 hours. After incubation, 2 ml of a mixture of 0.6M phosphoric acid and acetone in the ratio 5:13 (v:v) was added. The sample was then stirred and filtered, and finally the amount of dye was determined with a spectrophotometer, taking readings at 620 nm. On the basis of the results obtained in the IgE-FcER linear binding assay, selecting as reference point the value of dilution of the ascitic fluid at which the most intense inflammatory reaction was observed, an assay of inhibition of the allergic reaction was performed using peptide IB and the comparative peptide. As described previously, intradermal injections of 10 µl of ascitic fluid, diluted 20 times in PBS, were applied to the ear lobe of a group of Balb/c mice, permitting the IgEs present in the ascitic fluid to bind to the FcεRs of the local mast cells, sensitizing them. After two days, various amounts of the peptides under investigation were dissolved in 100 µl of PBS and administered intraperitoneally to the sensitized mice. In particular, doses corresponding to 0.5 - 1 - 5 - 10 - 50 mg of peptide per kg of body weight of the mouse were used. 100 µl of PBS was injected as negative control. After 30 minutes the mice received the intravenous injection of the solution of ovalbumin and Evans Blue dye.

[3] = molar value printed in brackets

Compound | dose inhibiting the inflammatory reaction completely [1] [µg] | dose inhibiting the inflammatory reaction completely [1, 3] | dose producing 50% inhibition of the local allergic reaction [2] | Inhibition of skin reaction (%) ([1]; Dose of Peptide 0.025 (µg/ml)) | Inhibition of skin reaction (%) ([1]; Dose of Peptide 0.25 (µg/ml)) | Inhibition of skin reaction (%) ([1]; Dose of Peptide 2.5 (µg/ml)) | Inhibition of skin reaction (%) ([1]; Dose of Peptide 25 (µg/ml)) | Inhibition of skin reaction (%) ([1]; Dose of Peptide 250 (µg/ml)) | Inhibition of skin reaction (%) ([1]; Dose of Peptide 2500 (µg/ml)) | activity greater than the activity of the comparative peptide ([1]; rat passive cutaneous anaphylaxis) | Inhibition of skin reaction (%) ([2]; Dose of Peptide 0.5 mg/kg intraperitoneally) | Inhibition of skin reaction (%) ([2]; Dose of Peptide 1.0 mg/kg intraperitoneally) | Inhibition of skin reaction (%) ([2]; Dose of Peptide 5.0 mg/kg intraperitoneally) | Inhibition of skin reaction (%) ([2]; Dose of Peptide 10.0 mg/kg intraperitoneally) | Inhibition of skin reaction (%) ([2]; Dose of Peptide 50.0 mg/kg intraperitoneally) | activity greater than the activity of the comparative peptide ([2]; mouse ear passive cutaneous anaphylaxis)
C[C@H](O)[C@@H](NC(=O)[C@H](N)CCCNC(=N)N)C(=O)N[C@H](Cc1ccc(O)cc1)C(=O)NCCCC[C@H](NC(=O)[C@@H](Cc1ccc(O)cc1)NC(=O)[C@H](NC(=O)[C@H](N)CCCNC(=N)N)[C@H](C)O)C(=O)NCCCC[C@H](NC(=O)[C@H](CCCCNC(=O)[C@@H](Cc1ccc(O)cc1)NC(=O)[C@H](NC(=O)[C@H](N)CCCNC(=N)N)[C@H](C)O)NC(=O)[C@@H](Cc1ccc(O)cc1)NC(=O)[C@H](NC(=O)[C@H](N)CCCNC(=N)N)[C@H](C)O)C(=O)NCC(=O)O [Comparative peptide, (H-D-Arg-D-Thr-D-Tyr-)4-L-Lys2-L-Lys-Gly-OH, reference compound] | 25 | 11.6 nmol | about 7 mg/kg | – | – | – | – | – | – | – | – | – | – | – | – | –
(H-L-Cys(p-MeOBzl)-D-Arg-D-Thr-D-Tyr)4-L-Lys2-L-Lys-L-Lys-OH [Peptide IB] | 2.5 | approx. 0.8 nmoles | 1 mg/kg | 35 | 60 | 100 | 100 | 100 | 100 | approx. 15 times | 10 | 50 | 65 | 71 | 85 | about 7 times
